According to the CheMixHub viscosity set:

Assay: xn = mol fraction of the nth substance listed

Nc1ccccc1[N+](=O)[O-] + ClC(Cl)(Cl)Cl
viscosity [mPa·s], 101 kPa
Conditions | 303.15 K | 308.15 K | 313.15 K | 318.15 K | 323.15 K
x1 = 0.02174 | 0.8952 | 0.8298 | 0.7841 | 0.7321 | 0.6886
x1 = 0.08489 | – | 1 | 0.9361 | 0.874 | 0.8093

CCC(=O)CC + ClC=C(Cl)Cl
viscosity [mPa·s], 101.33 kPa
Conditions | x2 = 0.1126 | x2 = 0.2042 | x2 = 0.2941 | x2 = 0.4591 | x2 = 0.5988 | x2 = 0.6807 | x2 = 0.7837 | x2 = 0.8997
298.15 K | 0.439 | 0.463 | 0.489 | 0.532 | 0.57 | 0.582 | 0.598 | 0.614
308.15 K | 0.402 | 0.426 | 0.449 | 0.491 | 0.523 | 0.539 | 0.558 | 0.574
318.15 K | 0.379 | 0.401 | 0.422 | 0.462 | 0.494 | 0.508 | 0.525 | 0.544

OCc1ccccc1 + Clc1ccccc1
303.15 K, 101 kPa
Conditions | viscosity [mPa·s]
x1 = 0.1372 | 0.9498
x1 = 0.2844 | 1.158
x1 = 0.3371 | 1.26
x1 = 0.4255 | 1.459
x1 = 0.5741 | 1.907
x1 = 0.6507 | 2.212
x1 = 0.7556 | 2.713
x1 = 0.8031 | 2.982
x1 = 0.9053 | 3.662

CCOC(=O)CC#N + N#CCc1ccccc1
viscosity [mPa·s], 101 kPa
Conditions | x2 = 0.1383 | x2 = 0.4842 | x2 = 0.8426
303.15 K | 2.135 | 1.995 | –
313.15 K | – | – | 1.535

CC(=O)OC(C)=O + O
viscosity [mPa·s], 101 kPa
Conditions | x1 = 0.2 | x1 = 0.4 | x1 = 0.45 | x1 = 0.5 | x1 = 0.6 | x1 = 0.8
298.15 K | 2.189 | 1.852 | 1.497 | 1.193 | 1.059 | 0.936
313.15 K | 1.484 | 1.294 | 1.104 | 0.921 | 0.835 | 0.735

CCCCCCCCCCCCCC[P+](CCCCCC)(CCCCCC)CCCCCC.[O-]c1ccccc1 + O
Conditions | viscosity [mPa·s]
298.15 K, 100 kPa, x2 = 0.69 | 183

CCN(CC)C(C)=O + O
298.16 K, 101 kPa
Conditions | viscosity [mPa·s]
x2 = 0.065 | 1.32
x2 = 0.1626 | 1.56
x2 = 0.255 | 1.86
x2 = 0.3529 | 2.26
x2 = 0.4791 | 2.92
x2 = 0.6036 | 3.7
x2 = 0.6894 | 4.22
x2 = 0.7465 | 4.38
x2 = 0.7702 | 4.36
x2 = 0.8188 | 4.2
x2 = 0.9049 | 2.45

NCCO.O=S(=O)([N-]S(=O)(=O)C(F)(F)F)C(F)(F)F.[Li+] + O
323.15 K, 101 kPa
Conditions | viscosity [mPa·s]
x1 = 0.03 | 1.2
x1 = 0.0597 | 2.1
x1 = 0.1001 | 3.72
x1 = 0.1995 | 8.33
x1 = 0.298 | 23.19
x1 = 0.4016 | 56.22
x1 = 0.4908 | 103.5
x1 = 0.6602 | 251.5
x1 = 0.8109 | 498.1
x1 = 0.8996 | 741.6

O=S(=O)([O-])[O-].[Cu+2] + O
viscosity [mPa·s]
Conditions | 308.15 K | 313.15 K | 323.15 K
101.3 kPa, x1 = 0.00112 | 0.742 | 0.673 | 0.5823
101.3 kPa, x1 = 0.002247 | 0.7918 | 0.7176 | 0.6001
101.3 kPa, x1 = 0.004484 | 0.8376 | 0.7579 | 0.6314
101.3 kPa, x1 = 0.008927 | 0.9348 | 0.8476 | 0.7076
101.3 kPa, x1 = 0.0177 | – | 0.977 | 0.817
101.33 kPa, x1 = 0.000905 | 0.7428 | 0.6739 | 0.5628
101.33 kPa, x1 = 0.002718 | 0.7922 | 0.7182 | 0.6005
101.33 kPa, x1 = 0.00453 | 0.838 | 0.7585 | 0.6319
101.33 kPa, x1 = 0.006344 | 0.8866 | 0.8013 | 0.6685
101.33 kPa, x1 = 0.008159 | 0.9348 | 0.8482 | 0.7082

CCCCCCCCCCCCCC[P+](CCCCCC)(CCCCCC)CCCCCC.[O-]c1ccccc1 + O=C=O
Conditions | viscosity [mPa·s]
298.15 K, 100 kPa, x2 = 0.5 | 368

OCc1ccccc1 + O=[N+]([O-])c1ccccc1
303.15 K, 101 kPa
Conditions | viscosity [mPa·s]
x1 = 0.1725 | 1.292
x1 = 0.2352 | 1.292
x1 = 0.3083 | 1.389
x1 = 0.4517 | 1.657
x1 = 0.5919 | 2.015
x1 = 0.6592 | 2.234
x1 = 0.7706 | 2.658
x1 = 0.8314 | 2.956
x1 = 0.9106 | 3.486

NCCO + OCCO
101.33 kPa
Conditions | viscosity [mPa·s]
293.15 K, x2 = 0.1246 | 29.94
293.15 K, x2 = 0.2055 | 32.9
293.15 K, x2 = 0.2907 | 35.07
293.15 K, x2 = 0.4172 | 36.01
293.15 K, x2 = 0.496 | 34.47
293.15 K, x2 = 0.5176 | 33.73
293.15 K, x2 = 0.6654 | 29.06
293.15 K, x2 = 0.701 | 28.14
293.15 K, x2 = 0.789 | 25.17
293.15 K, x2 = 0.8248 | 23.8
293.15 K, x2 = 0.8691 | 22.48
293.15 K, x2 = 0.9427 | 21.11
293.15 K, x2 = 0.9527 | 20.92
303.15 K, x1 = 0.155 | 16.74
303.15 K, x1 = 0.303 | 19.61
313.15 K, x1 = 0.155 | 11.41
313.15 K, x1 = 0.303 | 13.08
323.15 K, x1 = 0.155 | 8.112
323.15 K, x1 = 0.303 | 9.172

OCc1ccccc1 + OCCO
293.15 K, 101.33 kPa
Conditions | viscosity [mPa·s]
x2 = 0.0946 | 7.031
x2 = 0.1648 | 7.627
x2 = 0.1834 | 7.781
x2 = 0.2979 | 8.824
x2 = 0.4721 | 10.98
x2 = 0.5503 | 12.18
x2 = 0.6255 | 13.48
x2 = 0.6888 | 14.69
x2 = 0.7556 | 16.05
x2 = 0.7929 | 16.82
x2 = 0.8219 | 17.42
x2 = 0.8789 | 18.75
x2 = 0.9113 | 19.36

[Br-].[Na+] + OCCO
101 kPa, x1 = 0.142
Conditions | viscosity [mPa·s]
303 K | 39.03
313 K | 25.16
323 K | 17.24

CCCC[n+]1ccn(C)c1.C[C@H](N)C(=O)[O-] + OCc1ccccc1
101 kPa
Conditions | viscosity [mPa·s]
298.15 K, x1 = 0.4864 | 18.75
313.15 K, x1 = 0.6945 | 18.65
